Test results: patent publication US8987250B2 (Gilead Sciences, Inc., priority 2012, dated 2015)
pEC50: −log10 of the molar value.

Key:
human liver microsomes = experiment: Test B: Metabolic Stability Assay with Human Liver Microsomes; assay type: in vitro ADME; details: 1 uM compound, 1 mg/mL human liver microsomal proteins, 37° C., 0-60 minutes; half-life class
From the text: Test B: Metabolic Stability Assay with Human Liver Microsomes
Effective viral suppression in the HIV infected patient requires that the antiviral drug persists in the patient's body at concentrations exceeding the minimum concentration required to inhibit viral proliferation. One of the factors controlling the drug levels after dosing is metabolic conversion. The liver is one site of drug metabolism. Approximately 60% of marketed drugs are cleared by hepatic metabolism (McGinnity D F et al. (2004) Drug Metab Dispos 32; 1247-1253). Liver microsomes are subcellular fractions which contain membrane bound drug metabolising enzymes. Human liver microsomes provide a convenient and concentrated source of the key liver metabolic enzymes (e.g., cytochromes P450, UDP-glucuronosyltransferases, and many others) and can be used to predict the metabolic stability of drug candidates (e.g., agents).
Cluster tubes containing 500 uL of 1 uM compound with 1 mg/mL human liver microsomal proteins (BD Biosciences, BD452117)/50 mM K-phosphate buffer pH7.4/NADPH regenerating system/and UDP-glucuronosyltransferase cofactors, were incubated on the Precision-2000 workstation at 37° C. for 0, 10, 25, 60 minutes. The reactions were quenched with 100 uL of 0.2% formic acid in 90% ACN; containing 50 nM of an internal standard. The samples were analyzed on LC/MS/MS instrument (Q-Trap). Metabolic stabilities in microsomal fractions and hepatocytes were determined by measuring the rate of disappearance of the compound. Data (% of parent remaining) were plotted on a semi logarithmic scale and fitted using an exponential fit.

HIV-IIIb = experiment: Test A: Antiviral Assay in MT4 Cells; assay type: cell-based; details: Human immunodeficiency virus 1, IIIB, MT4, 120 h, Table 2; MT-4 cells infected with HIV-IIIb, 5 days of incubation, CellTiter-Glo; read-out: EC50
Method in brief: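 MT-4 cells pre-infected with HIV-IIIb (0.004 m.o.i.) at 37 °C, then exposed to 3-fold serial compound dilutions (10 concentrations, quadruplicate) in RPMI 1640/10% FBS. After 5 days at 37 °C, viability read by CellTiter-Glo luminescence.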

Row | Structure (SMILES) | Human Microsomal stability (human liver microsomes) | pEC50 (HIV-IIIb)
1 | Cc1cc2nc(N3CCN(C)C(c4ccc5c(cnn5C)c4)C3)sc2c(-c2ccc(Cl)cc2)c1[C@H](OC(C)(C)C)C(=O)O (stereo partly drawn) [Compound 278, (2S)-2-tert-butoxy-2-(7-(4-chlorophenyl)-5-methyl-2-(4-methyl-3-(1-methyl-1H-indazol-5-yl)piperazin-1-yl)benzo[d]thiazol-6-yl)acetic acid] | B (a human microsomal stability half-life of less than 300 minutes but greater than or equal to 150 minutes) | 8.40
2 | Cc1cc2nc(-c3ccnc(N4CC(N(C)C)C4)n3)sc2c(-c2ccc(Cl)cc2)c1[C@H](OC(C)(C)C)C(=O)O [Compound 333, (S)-2-tert-butoxy-2-(7-(4-chlorophenyl)-2-(2-(3-(dimethylamino)azetidin-1-yl)pyrimidin-4-yl)-5-methylbenzo[d]thiazol-6-yl)acetic acid] | A (a human microsomal stability half-life of greater than or equal to 300 minutes) | 8.52
3 | Cc1cc2nc(-c3ccnc(N4CCN(C5COC5)CC4)n3)sc2c(-c2ccc(Cl)cc2)c1[C@H](OC(C)(C)C)C(=O)O [Compound 336, (S)-2-tert-butoxy-2-(7-(4-chlorophenyl)-5-methyl-2-(2-(4-(oxetan-3-yl)piperazin-1-yl)pyrimidin-4-yl)benzo[d]thiazol-6-yl)acetic acid] | A (a human microsomal stability half-life of greater than or equal to 300 minutes) | 8.70
